# According to US20190308988A1, “OPIOID RECEPTOR ANTAGONIST PRODRUGS” (Nirsum Laboratories, Inc., priority 2017, published 2019):
# Experiments:
# [1] = Solubility determination in oil (Table 10); conditions: thermodynamic from solid; for solubility thermodynamic: water, Equilibrium solubility: Water
# Procedure: A known amount of test substance (˜40 mg) was weighed into the vial, 100 μL of oil was added and heated to 60° C. and then system was slurried to reach equilibrium. […] Extra oil was added into the vial once compound precipitated out and then the system was re-equilibrated at 1000 rpm at room temperature (25° C.). Final concentration was determined by HPLC method as described below in Table 6a and 6b.
# [2] = Dog pharmacokinetic studies, deep intramuscular administration; type: in vivo, Beagle dogs; conditions: Beagle, dog, plasma, im, Sesame oil + 1% Benzyl Alcohol; for AUC(0-inf): read-out: AUC0-inf (ng · h/mL) prodrug; for half-life: read-out: Half-life t1/2 (hour) prodrug (converted)
# Procedure: The purpose of this study is to determine the pharmacokinetics of test compounds in plasma, following deep intramuscular administration to Beagle dogs (n=3, unless otherwise specified).
# (§1) The dose formulation (concentration—400 mg base equivalents/ml in sesame oil+1% benzyl alcohol, unless otherwise specified) was administered via deep intramuscularly (unless otherwise specified). The injection vehicle was also dosed via deep intramuscular route (unless otherwise specified) on contralateral site of each animal at study initiation. The animals were sedated with Propofol at 6 mg/kg via IV administration. Following sedation hair was carefully removed from around the injection site and the area gently cleaned. Care will be taken to avoid irritating skin during shaving and cleaning the injection site. Then dogs will be dosed with deep IM administration. At least 2.5 cm depth from the surface into the central aspect of the quadriceps or biceps femoris muscle, by angling the needle toward the femur. If the needle hits the femur, simply draws back slightly and then inject. The dose volume will be determined by the animals' body weight collected on the morning of dosing day. For repeated administration, the injection sites may be rotated to minimize tissue injury.
# Blood samples were collected from a peripheral vessel from restrained, non-sedated animals per sampling time point.
# Approximately 0.8 mL blood will be collected at each time point.
# (§2) Each collected blood sample was centrifuged for 4 minutes at 4° C. and 10000 rpm for plasma collection. Plasma was collected and transferred into a pre-labeled PP tube in dry ice at each time point and precipitated immediately using ACN at a ratio of 1:4 (plasma:ACN).
# (§3) LC-MS/MS methods for the quantitative determination of test compound in biological matrix were developed. […] The sample analysis was performed concurrently with a set of calibration standards and two sets of QC samples using the LC-MS/MS method.
# (§4) Plasma concentration versus time data was analyzed by non-compartmental approaches using the Phoenix WinNonlin 6.3 software program. Cmax, Tmax, T1/2, AUC(0-t), AUC(0-inf), MRT(0-t), MRT(0-inf) and graphs of plasma concentration versus time profile were prepared.
# [3] = Dog body weights and clinical observation (Tables 66-86); type: in vivo, Beagle dogs; conditions: dog D1002, 48 mg/kg
# Procedure: Weight monitoring was done every week.
# as §1
# [4] = Plasma stability, human plasma (HPLC-MS); type: in vitro ADME; conditions: 2 μM, 37° C., 120 min
# Procedure: Plasma Stability Determination of the Test Compounds in Rat, Dog, Cynomolgus Monkey and human plasma is performed using HPLC-MS. For rat, incubations are carried out in 96-well polypropylene plates in 5 aliquots of 70 μL each (one for each time point). […] Five time points are analyzed (0, 15, 120, 480 and 1440 min). […] All incubations are performed in duplicates. The samples are analyzed by HPLC-MS. The percentage of parent compound remaining after incubation in plasma is determined.
# [5] = Liver S9 fraction stability, dog; type: in vitro ADME; conditions: dog liver S9 1.0 mg/ml, 2 μM, 37° C.
# Procedure: (§5) Liver S9 fraction stability determination of the test compounds in dog, cynomolgus monkey and human is performed using HPLC-MS. Test compound (2 μM, 0.1% DMSO, 1% Methanol final concentration) was assessed for stability in a 50 μl phosphate buffer containing 1.0 mg/ml S9 protein from each of the three species and 5 mM D-saccharic acid-1, 4-lactone. Samples were incubated at 37° C. for 60 minutes and the % compound remaining was assessed.
# [6] = Liver S9 fraction stability, monkey; type: in vitro ADME, cynomolgus monkey; conditions: monkey liver S9 1.0 mg/ml, 2 μM, 37° C.
# Procedure: as §5
# [7] = Liver S9 fraction stability, human; type: in vitro ADME; conditions: human liver S9 1.0 mg/ml, 2 μM, 37° C.
# Procedure: as §5
# [8] = in vivo; cited from earlier work
# [9] = Polymorph screening of solid state drug substances (Table 23); type: physicochemical; conditions: stirred 50 °C 72 hours; for Dry method and appearance: dried solid
# [10] = Rat pharmacokinetic studies, intramuscular administration; type: in vivo, male Sprague Dawley Rats; conditions: male, Sprague Dawley, rat, plasma, im, Sesame oil + 1% Benzyl Alcohol; for AUC(0-inf): read-out: AUC0-inf (ng · h/mL) prodrug; for half-life: read-out: Half-life t1/2 (hour) prodrug (converted)
# Procedure: The purpose of this study is to determine the pharmacokinetics of test compounds in plasma, following intramuscular administration to male Sprague Dawley Rats (n=3, unless otherwise specified).
# The dose formulation of 400 mg base equivalents/ml in sesame oil+1% benzyl alcohol (unless otherwise specified) was administered by intramuscular injection. The dose volume was determined by the animals' body weight determined on the morning of dosing day.
# as §2, with “(plasma:ACN). Centrifuged again (10 minutes, 12000 rpm) and obtain the supernatant.” for “(plasma:ACN).”
# as §3, §4
# [11] = 25 °C, oil or lipid, Approximate Solubility in Excipient: Cottonseed oil, Heating Temp. 60 °C, Obs. Temp. 25 °C
# [12] = 25 °C, oil or lipid, Approximate Solubility in Excipient: Sesame oil, Heating Temp. 60 °C, Obs. Temp. 25 °C
# [13] = 40 °C, oil or lipid, Approximate Solubility in Excipient: Cottonseed oil, Heating Temp. 60 °C, Obs. Temp. 40 °C
# [14] = 40 °C, oil or lipid, Approximate Solubility in Excipient: Sesame oil, Heating Temp. 60 °C, Obs. Temp. 40 °C
smiles,measurement,setting,value
"C=C1CC[C@@]2(O)C3Cc4ccc(OCOC(=O)OCCCCCCCCCCC)c5c4[C@@]2(CCN3CC2CC2)[C@H]1O5 [Compound 5, (((4aS,7aS,12bS)-3-(cyclopropylmethyl)-4a-hydroxy-7-methylene-2,3,4,4a,5,6,7,7a-octahydro-1H-4,12-methanobenzofuro[3,2-e]isoquinolin-9-yl)oxy)methyl undecyl carbonate]",solubility,"[1]; 25 °C, oil or lipid, Solubility by volumetric flask method: Cottonseed oil, volumetric flask method, Heating Temp. 60 °C, Obs. Temp. 25 °C",> 402 mg/mL
same,solubility,"[1]; 25 °C, oil or lipid, Solubility by volumetric flask method: Sesame oil, volumetric flask method, Heating Temp. 60 °C, Obs. Temp. 25 °C",> 401 mg/mL
same,solubility thermodynamic,"[1]; 40 °C, section 'Solubility by volumetric flask method', Heating Temp. 40 °C, Obs. Temp. 40 °C",< 0.001 mg/mL
same,AUC(0-inf),"[2]; 48 mg/kg, IM 48 mg/kg",3.87 µg·h/mL
same,half-life,"[2]; 48 mg/kg, IM 48 mg/kg",70.9 h
same,BT,[3]; 456 hr,3 cm * 3 cm/BT: 38.9 °C
same,BT,[3]; 504 hr,3 cm * 3 cm/BT: 38.7 °C
same,BT,[3]; […],3 cm * 4 cm/BT: 39.4 °C
"CCCCCCCCCCCC(=O)OCN1C(=O)CCc2ccc(OCCCCN3CCN(c4cccc(Cl)c4Cl)CC3)cc21 [Aripiprazole lauroxil, reference compound]","% remaining at time point in minutes, 120 min",[4],80%
same,"% remaining at 60 minutes, Dog",[5],66.1%
same,"% remaining at 60 minutes, Monkey",[6],56.6%
same,"% remaining at 60 minutes, Human",[7],47.8%
Oc1ccc2c3c1O[C@H]1[C@H](O)CC[C@@]4(O)[C@@H](C2)N(CC2CC2)CC[C@]314 [6-β-naltrexol],mean elimination half-life,[8],thirteen
"C=C1CC[C@@]2(O)C3Cc4ccc(OC(=O)CCCCCCCCCCCCCCC)c5c4[C@@]2(CCN3CC2CC2)[C@H]1O5 [Compound 56, (4aS,7aS,12bS)-3-(cyclopropylmethyl)-4a-hydroxy-7-methylene-2,3,4,4a,5,6,7,7a-octahydro-1H-4,12-methanobenzofuro[3,2-e]isoquinolin-9-yl palmitate]",solubility at 24 h,[1]; [11],< 50 mg/mL
same,solubility at 24 h,[1]; [12],< 50 mg/mL
same,solubility,[1]; [13],25 to 50 mg/mL
same,solubility,[1]; [14],25 to 50 mg/mL
same,solubility,"[1]; 40 °C, organic solvent or mixture, Approximate Solubility in Excipient: Ethanol, Heating Temp. 60 °C, Obs. Temp. 40 °C",< 40.4 mg/mL
same,solubility thermodynamic,"[1]; 40 °C, Heating Temp. 60 °C, Obs. Temp. 40 °C",0.0679 mg/mL
same,melting point,,48.95 °C
"C=C1CC[C@@]2(O)C3Cc4ccc(OC(=O)NC(C)(C)C)c5c4[C@@]2(CCN3CC2CC2)[C@H]1O5 [Compound 40, (4aS,7aS,12bS)-3-(cyclopropylmethyl)-4a-hydroxy-7-methylene-2,3,4,4a,5,6,7,7a-octahydro-1H-4,12-methanobenzofuro[3,2-e]isoquinolin-9-yl tert-butylcarbamate]",XRPD results (Dried),[9]; Acetone,Amorphous
same,Dry method and appearance,[9]; Acetone,Evaporation/white powder
same,XRPD results (Dried),[9]; EtOAc,Pattern A
same,Dry method and appearance,[9]; EtOAc,Evaporation/white powder
same,XRPD results (Dried),[9]; Heptane,Pattern A
same,Dry method and appearance,[9]; Heptane,Centrifugation/white powder
same,XRPD results (Dried),[9]; Isopropanol,Amorphous
same,Dry method and appearance,[9]; Isopropanol,Evaporation/oil
same,XRPD results (Dried),[9]; MTBE,Amorphous
same,Dry method and appearance,[9]; MTBE,Evaporation/white powder
same,melting point,,107.6 °C
"C=C1CC[C@@]2(O)C3Cc4ccc(OC(=O)CCCCCCC/C=C/CCCCCCCC)c5c4[C@@]2(CCN3CC2CC2)[C@H]1O5 [Compound 15, (4aS,7aS,12bS)-3-(cyclopropylmethyl)-4a-hydroxy-7-methylene-2,3,4,4a,5,6,7,7a-octahydro-1H-4,12-methanobenzofuro[3,2-e]isoquinolin-9-yl (E)-octadec-9-enoate]","% remaining at 60 minutes, Dog",[5],80.9%
same,"% remaining at 60 minutes, Monkey",[6],76.7%
same,"% remaining at 60 minutes, Human",[7],59.8%
same,solubility at 24 h,[1]; [11],> 403 mg/mL
same,solubility at 24 h,[1]; [12],> 396 mg/mL
same,solubility,"[1]; 40 °C, oil or lipid, Approximate Solubility in Excipient: Cottonseed oil, Heating Temp. 40 °C, Obs. Temp. 40 °C",< 51 mg/mL
same,solubility,[1]; [13],> 401 mg/mL
same,solubility,"[1]; 40 °C, oil or lipid, Approximate Solubility in Excipient: Sesame oil, Heating Temp. 40 °C, Obs. Temp. 40 °C",< 52 mg/mL
same,solubility,[1]; [14],> 404 mg/mL
same,solubility,"[1]; 40 °C, organic solvent or mixture, Approximate Solubility in Excipient: Ethanol, Heating Temp. 40 °C, Obs. Temp. 40 °C",< 20 mg/mL
same,solubility thermodynamic,"[1]; 40 °C, Heating Temp. 40 °C, Obs. Temp. 40 °C",< 0.0002 mg/mL
same,AUC(0-inf),[10]; 80 mg/kg,0.679 µg·h/mL
same,half-life,[10]; 80 mg/kg,1550 h
same,AUC(0-inf),[10]; 123 mg/kg,2.57 µg·h/mL
same,half-life,[10]; 123 mg/kg,884 h
same,AUC(0-inf),[10]; 165 mg/kg,2.79 µg·h/mL
same,half-life,[10]; 165 mg/kg,500 h
same,AUC(0-inf),"[2]; 30 mg/kg, IM 30 mg/kg",0.521 µg·h/mL
same,half-life,"[2]; 30 mg/kg, IM 30 mg/kg",134 h
same,AUC(0-inf),"[2]; 48 mg/kg, IM 48 mg/kg",1.14 µg·h/mL
same,half-life,"[2]; 48 mg/kg, IM 48 mg/kg",518 h
same,AUC(0-inf),"[2]; 96 mg/kg, IM 96 mg/kg",1.35 µg·h/mL
same,half-life,"[2]; 96 mg/kg, IM 96 mg/kg",162 h
